Experiments:
in vivo [1] = details: Sprague-Dawley, rat, iv, 1 mg/kg
in vitro [2] = details: dog, hepatocytes
in vivo [3] = details: CD-1, mouse, po, 30 mg/kg
in vivo [4] = details: Sprague-Dawley, rat, po, 10 mg/kg
Cytochrome P450 2B6 = biological target: T1, Cytochrome P450 2B6 (Homo sapiens, UniProt P20813)
T1 sequence (P20813 whole entry): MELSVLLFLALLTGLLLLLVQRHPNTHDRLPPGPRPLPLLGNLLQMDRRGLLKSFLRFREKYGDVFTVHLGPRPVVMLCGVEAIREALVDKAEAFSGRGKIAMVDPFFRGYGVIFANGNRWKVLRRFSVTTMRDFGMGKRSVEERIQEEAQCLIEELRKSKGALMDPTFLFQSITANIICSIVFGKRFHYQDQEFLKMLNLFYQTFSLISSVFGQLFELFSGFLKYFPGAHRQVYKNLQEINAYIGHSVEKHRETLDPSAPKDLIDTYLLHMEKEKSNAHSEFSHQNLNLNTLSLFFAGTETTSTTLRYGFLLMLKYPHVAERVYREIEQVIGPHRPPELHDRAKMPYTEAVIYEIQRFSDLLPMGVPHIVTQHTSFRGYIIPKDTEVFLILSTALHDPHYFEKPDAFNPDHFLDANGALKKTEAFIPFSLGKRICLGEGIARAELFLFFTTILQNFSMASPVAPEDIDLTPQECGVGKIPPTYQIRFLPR

in vivo [5] = details: cynomolgus monkey, iv, 1 mg/kg
in vitro [6] = details: cynomolgus monkey, plasma
in vivo [7] = details: Beagle, dog, po, 10 mg/kg
in vivo [8] = details: CD-1, mouse, po, 10 mg/kg
in vivo [9] = details: cynomolgus monkey, po, 10 mg/kg
NCI-H23 = experiment: cells; details: Homo sapiens
[10] = biological target: Phosphatidylinositol 4,5-bisphosphate 3-kinase catalytic subunit alpha isoform (Homo sapiens, UniProt P42336)
[11] = biological target: Voltage-gated inwardly rectifying potassium channel KCNH2 (Homo sapiens, UniProt Q12809)
in vitro [12] = details: mouse, plasma
in vitro [13] = details: human, Caco-2
in vivo [14] = details: cynomolgus monkey, iv, 1 mg/kg; remark: listed apart in the source
in vitro [15] = details: mouse, hepatocytes
Cytochrome P450 2C8 = biological target: T2, Cytochrome P450 2C8 (Homo sapiens, UniProt P10632)
T2 sequence (P10632 whole entry): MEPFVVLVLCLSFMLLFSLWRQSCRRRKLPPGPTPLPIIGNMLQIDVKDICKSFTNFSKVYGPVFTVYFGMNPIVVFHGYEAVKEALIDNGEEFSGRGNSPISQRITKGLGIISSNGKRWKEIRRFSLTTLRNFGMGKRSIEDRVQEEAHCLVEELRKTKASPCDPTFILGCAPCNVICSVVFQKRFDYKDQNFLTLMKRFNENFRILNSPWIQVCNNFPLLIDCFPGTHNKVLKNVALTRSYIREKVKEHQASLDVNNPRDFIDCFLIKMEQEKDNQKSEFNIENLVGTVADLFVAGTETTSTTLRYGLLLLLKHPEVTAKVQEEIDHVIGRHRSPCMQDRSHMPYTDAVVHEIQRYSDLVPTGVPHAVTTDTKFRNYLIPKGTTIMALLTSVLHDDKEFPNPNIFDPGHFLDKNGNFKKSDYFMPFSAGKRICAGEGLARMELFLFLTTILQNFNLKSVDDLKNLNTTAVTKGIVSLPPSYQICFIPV

in vivo [16] = details: CD-1, mouse, iv, 1 mg/kg
in vivo [17] = details: CD-1, mouse, po, 10 mg/kg; remark: listed apart in the source

Chain of Phosphatidylinositol 4,5-bisphosphate 3-kinase catalytic subunit alpha isoform (P42336 whole entry, canonical isoform): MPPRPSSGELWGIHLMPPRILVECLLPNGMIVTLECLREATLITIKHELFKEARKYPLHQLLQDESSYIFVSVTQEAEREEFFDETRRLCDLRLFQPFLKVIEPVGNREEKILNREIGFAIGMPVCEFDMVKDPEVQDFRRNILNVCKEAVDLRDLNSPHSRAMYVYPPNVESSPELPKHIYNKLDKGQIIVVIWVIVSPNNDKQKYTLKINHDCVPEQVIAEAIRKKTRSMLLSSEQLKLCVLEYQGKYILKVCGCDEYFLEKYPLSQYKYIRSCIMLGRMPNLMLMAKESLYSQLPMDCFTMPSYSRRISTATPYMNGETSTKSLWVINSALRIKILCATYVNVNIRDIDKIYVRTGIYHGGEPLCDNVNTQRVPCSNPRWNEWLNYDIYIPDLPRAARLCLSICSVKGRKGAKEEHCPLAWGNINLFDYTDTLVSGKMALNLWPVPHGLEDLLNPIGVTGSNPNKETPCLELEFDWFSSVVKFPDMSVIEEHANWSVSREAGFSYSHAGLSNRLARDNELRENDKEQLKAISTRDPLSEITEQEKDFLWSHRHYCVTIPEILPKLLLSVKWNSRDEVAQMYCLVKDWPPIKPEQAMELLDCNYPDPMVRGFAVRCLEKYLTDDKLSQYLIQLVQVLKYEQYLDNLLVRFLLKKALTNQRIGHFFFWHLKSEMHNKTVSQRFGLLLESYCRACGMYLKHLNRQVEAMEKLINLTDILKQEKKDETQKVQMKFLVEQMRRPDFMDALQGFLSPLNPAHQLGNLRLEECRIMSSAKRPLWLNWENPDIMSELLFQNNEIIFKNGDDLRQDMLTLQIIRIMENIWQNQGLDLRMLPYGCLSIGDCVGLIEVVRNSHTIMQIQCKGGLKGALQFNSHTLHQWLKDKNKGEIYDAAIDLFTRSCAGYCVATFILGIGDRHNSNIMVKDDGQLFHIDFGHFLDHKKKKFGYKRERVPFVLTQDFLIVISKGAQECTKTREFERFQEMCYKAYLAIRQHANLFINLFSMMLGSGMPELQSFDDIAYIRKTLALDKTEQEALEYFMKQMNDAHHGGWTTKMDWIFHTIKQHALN
Chain of Voltage-gated inwardly rectifying potassium channel KCNH2 (Q12809 whole entry): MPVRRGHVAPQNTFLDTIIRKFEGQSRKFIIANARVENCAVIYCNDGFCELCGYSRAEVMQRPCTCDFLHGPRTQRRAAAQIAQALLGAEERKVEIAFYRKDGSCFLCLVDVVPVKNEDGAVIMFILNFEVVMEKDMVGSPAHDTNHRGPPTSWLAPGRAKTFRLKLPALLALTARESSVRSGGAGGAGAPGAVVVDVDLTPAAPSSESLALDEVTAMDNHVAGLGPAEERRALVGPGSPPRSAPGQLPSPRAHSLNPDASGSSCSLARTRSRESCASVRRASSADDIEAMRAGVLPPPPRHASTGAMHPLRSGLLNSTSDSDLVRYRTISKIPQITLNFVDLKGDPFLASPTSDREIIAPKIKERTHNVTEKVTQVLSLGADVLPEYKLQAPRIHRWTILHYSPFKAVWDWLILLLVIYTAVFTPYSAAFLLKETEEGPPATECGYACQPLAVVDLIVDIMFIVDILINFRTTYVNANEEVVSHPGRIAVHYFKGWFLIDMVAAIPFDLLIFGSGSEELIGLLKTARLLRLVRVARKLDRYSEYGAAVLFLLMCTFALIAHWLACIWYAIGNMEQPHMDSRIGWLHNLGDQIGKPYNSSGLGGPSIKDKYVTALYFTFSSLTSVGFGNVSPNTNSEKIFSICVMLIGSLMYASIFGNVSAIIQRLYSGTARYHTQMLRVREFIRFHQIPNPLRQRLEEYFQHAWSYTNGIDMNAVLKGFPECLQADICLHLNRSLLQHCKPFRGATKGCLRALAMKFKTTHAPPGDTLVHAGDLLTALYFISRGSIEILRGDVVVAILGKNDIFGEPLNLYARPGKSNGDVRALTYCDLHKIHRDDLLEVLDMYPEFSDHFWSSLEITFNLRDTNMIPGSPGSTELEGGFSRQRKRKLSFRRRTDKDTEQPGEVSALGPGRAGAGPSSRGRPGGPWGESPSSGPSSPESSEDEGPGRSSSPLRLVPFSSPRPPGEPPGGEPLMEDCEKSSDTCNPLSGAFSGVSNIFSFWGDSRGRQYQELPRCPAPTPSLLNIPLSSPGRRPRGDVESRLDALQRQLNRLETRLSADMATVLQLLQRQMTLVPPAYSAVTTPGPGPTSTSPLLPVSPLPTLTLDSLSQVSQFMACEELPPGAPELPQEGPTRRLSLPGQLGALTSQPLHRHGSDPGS

Vd (in vivo [1]): 3.9 L/kg | CLint scaled (in vitro [2]): 6 mL/min/kg | Tmax (in vivo [3]): 15 min | AUC(0-t) (in vivo [4]): 3.78 µM·h | IC50 (Cytochrome P450 2B6): > 10 µM | Vd (in vivo [5]): 2 L/kg | fraction unbound at 5 h, 5 µM (in vitro [6]): 0.54 | Cmax (in vivo [7]): 1930 nM | AUC(0-t) (in vivo [8]): 4.25 µM·h | Tmax (in vivo [9]): 49.8 min | EC50 (NCI-H23): 0.14 µM | IC50 [10]: 29 µM | fraction unbound at 5 h, 5 µM (in vitro [12]): 0.33 | Papp B→A at 10 µM (in vitro [13]): 34 ×10⁻⁶ cm/s | half-life (in vivo [14]): 78 min | CLint scaled (in vitro [15]): 22 mL/min/kg | IC50 (Cytochrome P450 2C8): > 10 µM | Vd (in vivo [16]): 4.9 L/kg | bioavailability (in vivo [17]): 77%
Compound: C[C@@H]1COCCN1c1cc(N=[S@@](C)(=O)C2CC2)nc(-c2ccnc(N)c2)n1
IC50 [11]: > 10 µM
